The source of these data is ChEMBL document CHEMBL4257523, “Chemical probes of Skp2-mediated p27 ubiquitylation and degradation” (Medchemcomm, 2018).

For experiment [1], the system named is RPMI-8226. The experiment is described as follows: Antiproliferative activity against human RPMI8226 cells. The experiment is classed as functional, cell-based.
The subject of the next experiment is U-266. The experiment is described as follows: Antiproliferative activity against human U266 cells. The experiment is classed as functional, cell-based.
Another experiment has as its system MM1.S. The experiment is described as follows: Antiproliferative activity against human MM1S cells. Type of experiment: functional, cell-based.
Experiment [2] in a line: Antiproliferative activity against human ANBL-6 cells. The experiment is classed as functional, cell-based.
Experiment [3] in a line: Antiproliferative activity against human RPMI8226/LR5 cells. Type of experiment: functional, cell-based. Conditions: RPMI-8226.
Experiment [4] concerns RPMI-8226. The experiment is described as follows: Antiproliferative activity against doxorubicin-resistant human RPMI8226 cells. The experiment is classed as functional, cell-based.
The nature of experiment [5]: Antiproliferative activity against human U266/LR6 cells. The experiment is classed as functional, cell-based. The conditions noted are these: U-266.
The nature of experiment [6]: Antiproliferative activity against human MM1R cells. The experiment is classed as functional, cell-based. The conditions noted are these: MM.1R.
Experiment [7] can be described thus: Antiproliferative activity against human ANBL6/B7R cells. Conditions: ANBL-6. Type of experiment: functional, cell-based.
For experiment [8], the system named is S-phase kinase-associated protein 1/S-phase kinase-associated protein 2 (Homo sapiens). The experiment is described as follows: Inhibition of SKP1/SKP2 protein-protein interaction in human MM1S cells assessed as reduction in p27 ubiquitylation at 10 uM after 16 hrs by PAGE analysis relative to control.
For experiment [9] the test system is unchanged. The experiment is described as follows: Inhibition of SKP1/SKP2 protein-protein interaction in human MM1S cells assessed as reduction in p27 ubiquitylation at 20 uM after 16 hrs by PAGE analysis relative to control.
The test system is the same in experiment [10]. The experiment is described as follows: Inhibition of SKP1/SKP2 protein-protein interaction in human MM1S cells assessed as reduction in p27 ubiquitylation at 25 uM after 16 hrs by PAGE analysis relative to control.
The subject of the next experiment is JeKo-1. The experiment is described as follows: Antiproliferative activity against human JeKo1 cells. Type of experiment: functional, cell-based.
Experiment [11] can be described thus: Antiproliferative activity against human ECC1 cells. The experiment is classed as functional, cell-based. The conditions noted are these: ECC-1.
Experiment [12] has as its target T1, Cyclin-dependent kinases regulatory subunit 1/S-phase kinase-associated protein 2 (Homo sapiens, UniProt P61024+Q13309). The experiment is described as follows: Inhibition of GST-tagged SKP2 (unknown origin)/His6-tagged CKS1 (unknown origin) expressed in Escherichia coli protein-protein interaction after 1 hr by Alpha screen assay.
Target sequence in this assay (P61024 whole entry): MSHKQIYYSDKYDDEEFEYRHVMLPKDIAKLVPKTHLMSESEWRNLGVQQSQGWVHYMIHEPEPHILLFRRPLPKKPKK
Target sequence in this assay (Q13309 whole entry): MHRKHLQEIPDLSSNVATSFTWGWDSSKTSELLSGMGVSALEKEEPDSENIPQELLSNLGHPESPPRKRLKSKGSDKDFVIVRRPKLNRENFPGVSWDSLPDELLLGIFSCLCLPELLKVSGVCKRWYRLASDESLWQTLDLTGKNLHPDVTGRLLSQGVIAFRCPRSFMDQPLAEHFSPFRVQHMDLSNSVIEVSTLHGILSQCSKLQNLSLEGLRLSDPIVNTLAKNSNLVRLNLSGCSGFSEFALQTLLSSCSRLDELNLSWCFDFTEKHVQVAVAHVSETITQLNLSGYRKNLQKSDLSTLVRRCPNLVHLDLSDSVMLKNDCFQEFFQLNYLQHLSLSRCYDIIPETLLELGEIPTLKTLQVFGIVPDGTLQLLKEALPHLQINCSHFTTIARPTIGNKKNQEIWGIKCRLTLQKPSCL
The next experiment concerns HeLa. The experiment in a line: Antiproliferative activity against human HeLa cells. Type of experiment: functional, cell-based.
Experiment [13] in a line: Antiproliferative activity against mouse tsFT210 cells. Type of experiment: functional, cell-based.
In a further experiment the test system is NIH3T3. The experiment is described as follows: Antiproliferative activity against mouse NIH/3T3 cells. The experiment is classed as functional, cell-based.
Experiment [14] concerns the target T1, Cyclin-dependent kinases regulatory subunit 1/S-phase kinase-associated protein 2. The experiment in a line: Inhibition of N-terminal fluorescent monomeric Azami Green-tagged SKP2 (unknown origin)/CKS1 (unknown origin) expressed in Escherichia coli DH10 protein-protein interaction assessed as reduction in p27 ubiquitylation at 0.4 to 3.2 uM relative to control.
Target sequence in this assay (P61024 2-79 limits assumed): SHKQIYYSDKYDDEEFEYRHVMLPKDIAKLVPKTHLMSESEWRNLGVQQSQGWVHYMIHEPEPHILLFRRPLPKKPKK
Target sequence in this assay (Q13309 whole entry partner): as the sequence (Q13309 whole entry) above

By IC50 is commonly meant the concentration that inhibits the measured activity by half. One may read the inhibition as the change of the read-out against control, counted positive when it falls. For `CN(C)c1ccc(CNCCC(Cc2ccccc2)C2CCOC(C)(C)C2)cc1` (configuration not stated), the IC50 in the experiment with RPMI-8226 [1] was found to be 8 µM; with U-266, 4.2 µM; in the experiment with MM1.S it was 5.4 µM; in experiment [2] it was 10 µM; in [3] it was 6.3 µM; in the experiment with RPMI-8226 [4] it was 8.5 µM. Further, the IC50 was determined as 4.3 µM in experiment [5], 5.4 µM in experiment [6] and 8 µM in experiment [7]. In addition, the inhibition in experiment [8] was 8%; in experiment [9], 44%; in [10], 51%.
By EC50 is commonly meant the concentration at which the effect is half-maximal. Higher therefore signals a need for much substance. Consider `COC(=O)C1=C(C)N(c2ccc(Br)cc2)C(=O)/C1=C\c1ccccc1O`, for which the concentration for a half-maximal effect (EC50) worked out at 9.3 µM in the experiment with JeKo-1 and 14.3 µM in experiment [11].
Consider `O=C(OC12CC3CC(CC(C3)C1)C2)c1ccc(NCc2cc(O)ccc2O)cc1`, for which, in experiment [12], the half-maximal inhibitory concentration (IC50) was found to be 36 µM.
Turning to `C=C(C)C(=O)O[C@H]1CC(=C)[C@@H]2C[C@H](O)[C@](O)(CCl)[C@@H]2[C@H]2OC(=O)C(=C)[C@@H]21`, the figures for the IC50 (in the experiment with HeLa; in [13]; in the experiment on NIH3T3) were 3.2 µM, 1.6 µM and 12.7 µM, respectively. The inhibition in experiment [14] fell in the range of 70 to 80%.
In the case of `CN(C)c1ccc(C(=C2C=CC(=[N+](C)C)C=C2)c2ccc(N(C)C)cc2)cc1` [GENTIAN VIOLET], the values for the IC50 (in the experiment on HeLa; in [13]; with NIH3T3) were 0.4 µM, 0.6 µM and 5.3 µM, respectively.
